Laboratory results reported in patent publication US20100292185A1, “BETA-LACTAMASE INHIBITORS” (priority 2009, published 2010).
Structures can show the parent of a compound that is named as a salt.

Tests used:
SHV-5 β-lactamase = molecular target: T1, SHV-5 β-lactamase (Klebsiella pneumoniae, UniProt P0A3M1); assay: β-lactamase enzyme inhibition assay (nitrocefin substrate), SHV-5; assay type: biochemical
T1 construct: expressed as native untagged proteins; made in house; host or cells: E. coli BL21(DE3)
Method: (§1) Isolation of β-lactamases. For SHV-5, p99 AmpC, KPC-2 and CTX-M15 β-lactamases, E. coli BL21(DE3) bacterial cells carrying expression plasmids (expressed as native untagged proteins) for the individual β-lactamases were grown in 1 L of Superbroth (Teknova Inc. Hollister, Calif.) supplemented with 100 μg/ml kanamycin and 1×5052 (0.5% glycerol, 0.05% glucose and 0.2% α-lactose) at 35° C. for 18-20 hours. Cells were harvested by centrifugation (4,000×g, 4° C., 20 min), and resuspended in 50 ml of 10 mM HEPES pH 7.5 (1/20 of the initial volume). The cells were lysed by sonication (5 pulses of 45 seconds) at 45 W on ice. The lysates were clarified by centrifugation at 10,000×g for 40 minutes at 4° C. Samples were diluted 5-fold in 50 mM sodium acetate pH 5.0, stored overnight at 4° C., after which they were centrifuged at 10,000×g for 30 minutes to clarify, and filtered through 0.45 μm filters. The samples were loaded onto a 5 ml Capto S sepharose cation exchange column (GE Healthcare) pre-equilibrated with 50 mM sodium acetate pH 5.0. The column was washed with 5 column volumes of 50 mM sodium acetate pH 5.0 to wash out unbound protein and a linear gradient of NaCl (0 to 500 mM) was used to elute the protein (over 16 CV) from the column. Fractions were assayed for β-lactamase activity using Centa (Calbiochem, Gibbstown, N.J.) as a reporter β-lactamase substrate for activity in the isolated fractions. Active fractions were pooled, concentrated and further purified by gel filtration chromatography on a Superdex 75 prep grade gel filtration column (GE Healthcare, Piscataway, N.J.) pre-equilibrated in 50 mM Hepes pH 7.5, 150 mM NaCl. Active fractions were pooled concentrated, quantitated by BCA protein determination (Thermo Scientific, Rockford, Ill.), and frozen at −80° C. in 20% glycerol until use.
(§2) β-lactamase Inhibition. To determine the level of inhibition of β-lactamase enzymes, compounds were diluted in PBS at pH 7.0 to yield concentrations between 100 and 0.005 μM in microtiter plates. An equal volume of diluted enzyme stock was added, and the plates were incubated at 37° C. for 10 min. Nitrocefin solution was then dispensed as substrate into each well at a final concentration of 100 μM, and the plates were immediately read with the kinetic program at 486 nm for 10 min on the SPECTRAMAX® Plus^384 (high-throughput microplate spectrophotometer; Molecular Devices Corp., Sunnyvale, Calif.). Maximum rates of metabolism were then compared to those in control wells (without inhibitors), and percentages of enzyme inhibition were calculated for each concentration of inhibitor. The concentration of inhibitor needed to reduce the initial rate of hydrolysis of substrate by 50% (IC50) was calculated as the residual activity of β-lactamase at 486 nm using the SoftMax Pro 5.0 software (Molecular Devices Corp.).
(§3) Using the methodology described above, examples of the current invention were evaluated for their ability to inhibit β-lactamase enzymes. The results of these assays are summarized in Table 2 for representative enzymes across different subtypes (note SHV-5 and CTXM-15 exemplify different subclasses of Ambler Class A Extended Spectrum Beta Lactamases, KPC-2 exemplifies Class A carbapenemases, P99 represents chromosomal Class C AmpC, VIM-2 exemplifies subclass B1 of metallo-β-lactamases, and OXA-23 represents chromosome-encoded Class D oxacillin-hydrolyzing β-lactamases), NT=not tested.

p99 AmpC β-lactamase = molecular target: T2, p99 AmpC β-lactamase (Enterobacter cloacae, UniProt P05364); assay: β-lactamase enzyme inhibition assay (nitrocefin substrate), P99 AmpC; assay type: biochemical; details: nitrocefin 100 μM, 37° C., PBS pH 7.0; read-out: P99 AmpC IC50
T2 construct: expressed as native untagged proteins; made in house; host or cells: E. coli BL21(DE3)
Method: as §1, §2, §3

KPC-2 β-lactamase = molecular target: T3, KPC-2 β-lactamase (Klebsiella pneumoniae, UniProt Q9F663); assay: β-lactamase enzyme inhibition assay (nitrocefin substrate), KPC-2; assay type: biochemical
T3 construct: expressed as native untagged proteins; made in house; host or cells: E. coli BL21(DE3)
Method: as §1, §2, §3

CTX-M15 β-lactamase = molecular target: T4, CTX-M15 β-lactamase (Escherichia coli, UniProt Q9EXV5); assay: β-lactamase enzyme inhibition assay (nitrocefin substrate), CTXM-15; assay type: biochemical
T4 construct: expressed as native untagged proteins; made in house; host or cells: E. coli BL21(DE3)
Method: as §1, §2, §3

[1] = tested on: E. coli expressing the Class A ESBL SHV-5; assay: In vitro antibacterial assay of β-lactamase inhibition (broth microdilution MIC), E. coli SHV-5; assay type: cell-based; details: in presence of Piperacillin 16 μg/ml (Examples 57-65)
Excerpt: (§4) To determine the ability of test compounds to potentiate the inhibition of the growth of bacterial strains producing beta-lactamase enzymes, classic cell based screening assays were employed. Five bacteria strains producing beta-lactamase enzymes were used: K. pneumoniae expressing the Class A Extended Spectrum Beta-Lactamase (ESBL) CTX-M-15, E. coli expressing the Class A ESBL SHV-5, E. cloacae expressing the Class C P99+, K. pneumoniae expressing the Class A carbapenemase KPC-2, and P. aeruginosa expressing the Class B metallo β-lactamase VIM-2. In order to evaluate the ability of test compounds to inhibit beta-lactamase activity, Applicants used a modification of the broth microdilution assay. The assay was conducted in Cation Adjusted Mueller Hinton Broth (CAMHB, BD # 212322, BD Diagnostic Systems, Sparks, Md.). Bacteria strains were grown for 3-5 hours in CAMBH broth. All five strains were grown in presence of 50 μg/mL ampicillin to ensure resistance is maintained. In the meantime, test compounds were diluted in DMSO to a 0.1 mg/mL stock. The compounds were added to a microtiter plate and were diluted in 2-fold serial dilutions in CAMHB in a final concentration range of 8 μg/mL to 0.015 μg/ml. […] Each of these compound plates are made in quadruplicate, one for each bacteria strain. In addition to the titration of test compounds the MICs of a panel of cephalosporins is also tested to ensure the strains are behaving consistently from test to test. Once the test compound and cephalosporin are added the plates can be inoculated. Inocula are conducted according to CLSI broth microdilution method. After inoculation the plates are incubated for 16-20 hours at 37° C. then the Minimal Inhibitory Concentration (MIC) of the test compound is determined visually.
(§5) Using the methodology described above, examples of the current invention were evaluated for their ability to inhibit the growth of β-lactamase producing bacteria in the presence of a β-lactam antibiotic.

[2] = tested on: K. pneumoniae expressing the Class A carbapenemase KPC-2; assay: microbe, parasite or virus in culture; assay type: cell-based; details: in presence of Piperacillin 16 μg/ml (Examples 57-65)
Excerpt: as §4, §5

[3] = tested on: E. cloacae expressing the Class C P99+; assay: In vitro antibacterial assay of β-lactamase inhibition (broth microdilution MIC), E. cloacae P99+; assay type: cell-based; details: in presence of Piperacillin 16 μg/ml (Examples 57-65)
Excerpt: as §4, §5

[4] = tested on: K. pneumoniae expressing the Class A Extended Spectrum Beta-Lactamase (ESBL) CTX-M-15; assay: In vitro antibacterial assay of β-lactamase inhibition (broth microdilution MIC), K. pneumoniae CTX-M-15; assay type: cell-based; details: in presence of Piperacillin 16 μg/ml (Examples 57-65)
Excerpt: as §4, §5

T1 sequence (P0A3M1 22-286): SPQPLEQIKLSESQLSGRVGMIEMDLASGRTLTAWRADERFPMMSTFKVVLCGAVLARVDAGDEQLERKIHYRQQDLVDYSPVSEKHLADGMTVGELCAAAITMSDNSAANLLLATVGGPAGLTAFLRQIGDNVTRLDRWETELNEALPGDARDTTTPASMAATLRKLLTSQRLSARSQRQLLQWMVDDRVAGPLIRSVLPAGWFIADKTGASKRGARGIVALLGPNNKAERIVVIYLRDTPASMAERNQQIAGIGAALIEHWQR
T2 sequence (P05364 21-381): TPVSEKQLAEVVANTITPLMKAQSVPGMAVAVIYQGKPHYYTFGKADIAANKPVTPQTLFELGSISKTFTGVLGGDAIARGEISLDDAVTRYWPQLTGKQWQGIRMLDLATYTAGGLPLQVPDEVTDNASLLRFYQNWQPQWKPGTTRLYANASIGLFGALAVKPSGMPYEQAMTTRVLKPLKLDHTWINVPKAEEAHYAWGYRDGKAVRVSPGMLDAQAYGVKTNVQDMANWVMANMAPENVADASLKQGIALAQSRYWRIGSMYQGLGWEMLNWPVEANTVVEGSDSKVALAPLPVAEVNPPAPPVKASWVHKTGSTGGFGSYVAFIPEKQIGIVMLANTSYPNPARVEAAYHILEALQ
T3 sequence (Q9F663 25-293 limits assumed): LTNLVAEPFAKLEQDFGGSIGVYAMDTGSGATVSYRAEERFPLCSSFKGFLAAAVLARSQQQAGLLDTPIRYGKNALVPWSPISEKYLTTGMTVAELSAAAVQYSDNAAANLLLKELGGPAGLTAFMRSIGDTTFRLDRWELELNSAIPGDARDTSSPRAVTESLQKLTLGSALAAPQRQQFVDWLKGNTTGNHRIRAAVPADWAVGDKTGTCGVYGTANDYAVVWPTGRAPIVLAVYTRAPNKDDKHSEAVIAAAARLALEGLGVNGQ
T4 sequence (Q9EXV5 entry or part of it): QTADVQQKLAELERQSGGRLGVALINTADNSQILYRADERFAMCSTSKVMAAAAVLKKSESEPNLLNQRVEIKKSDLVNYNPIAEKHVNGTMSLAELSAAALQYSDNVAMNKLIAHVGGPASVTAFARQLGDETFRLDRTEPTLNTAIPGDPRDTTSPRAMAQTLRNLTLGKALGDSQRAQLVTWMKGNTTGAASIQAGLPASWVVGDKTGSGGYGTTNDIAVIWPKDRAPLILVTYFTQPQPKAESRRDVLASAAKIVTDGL

## Cl.O=C(N[C@@H](Cc1cccc(C(=O)O)c1O)B(O)O)c1ccc(CNCc2cccnc2)cc1 [Example 17, (1R)-[4-(pyridin-3-ylmethylaminomethyl]-benzoylamino-(3-carboxy-2-hydroxy)benzyl-methylboronic acid hydrochloride]
SHV-5 β-lactamase
  IC50: > 1000 nM
p99 AmpC β-lactamase
  IC50: 8 nM
KPC-2 β-lactamase
  IC50: 15 nM
CTX-M15 β-lactamase
  IC50: 5 nM

## N=C(N)NCCC[C@H](NCc1ccc(CC(=O)N[C@@H](Cc2cccc(C(=O)O)c2O)B(O)O)cc1)C(=O)O [Example 59, (1R)-1-(2-{4-[(1-Carboxy-4-guanidino-butylamino)-methyl]-phenyl}-acetylamino)-1-[(3-carboxy-2-hydroxy)benzyl]-methylboronic acid formate]
SHV-5 β-lactamase
  IC50: 2 nM
p99 AmpC β-lactamase
  IC50: 6 nM
[1]
  MIC of example compound, E. coli SHV-5: 0.5 µg/mL
KPC-2 β-lactamase
  IC50: 15 nM
[2]
  MIC of example compound, K. pneumoniae KPC-2: 1 µg/mL
[3]
  MIC of example compound, E. cloacae P99+: 2 µg/mL
[4]
  MIC of example compound, K. pneumoniae CTX-M-15: >16 µg/mL

## N=C(N)NCc1cccc(CC(=O)N[C@@H](Cc2cccc(C(=O)O)c2O)B(O)O)c1 [Example 65, (1R)-1-{2-[3-(1-guanidinomethyl)-phenyl]-acetylamino}-1-[(3-carboxy-2-hydroxy)benzyl]-methylboronic acid formate salt]
[1]
  MIC of example compound, E. coli SHV-5: 0.25 µg/mL
[2]
  MIC of example compound, K. pneumoniae KPC-2: 0.5 µg/mL
[3]
  MIC of example compound, E. cloacae P99+: 0.25 µg/mL
[4]
  MIC of example compound, K. pneumoniae CTX-M-15: >16 µg/mL

## O=C(Cc1ccc(CNC(CO)C(=O)O)cc1)N[C@@H](Cc1cccc(C(=O)O)c1O)B(O)O (stereo partly drawn) [Example 60, (1R)-1-(2-{4-[(1-Carboxy-2-hydroxy-ethylamino)-methyl]-phenyl}-acetylamino)-1-[(3-carboxy-2-hydroxy)benzyl]-methylboronic acid formate]
SHV-5 β-lactamase
  IC50: 2 nM
p99 AmpC β-lactamase
  IC50: 9 nM
[1]
  MIC of example compound, E. coli SHV-5: 1 µg/mL
KPC-2 β-lactamase
  IC50: 11 nM
[2]
  MIC of example compound, K. pneumoniae KPC-2: 0.5 µg/mL
[3]
  MIC of example compound, E. cloacae P99+: 2 µg/mL
[4]
  MIC of example compound, K. pneumoniae CTX-M-15: >16 µg/mL

## N=C(N)NCc1ccc(CC(=O)N[C@@H](Cc2cccc(C(=O)O)c2O)B(O)O)cc1 [Example 61, (1R)-1-{2-[4-(1-guanidinomethyl)-phenyl]-acetylamino}-1-[(3-carboxy-2-hydroxy)benzyl]-methylboronic acid formate salt]
SHV-5 β-lactamase
  IC50: 2 nM
p99 AmpC β-lactamase
  IC50: 11 nM
[1]
  MIC of example compound, E. coli SHV-5: 0.25 µg/mL
KPC-2 β-lactamase
  IC50: 14 nM
[2]
  MIC of example compound, K. pneumoniae KPC-2: 0.25 µg/mL
CTX-M15 β-lactamase
  IC50: 4 nM
[3]
  MIC of example compound, E. cloacae P99+: 0.25 µg/mL
[4]
  MIC of example compound, K. pneumoniae CTX-M-15: 16 µg/mL

## N=C(N)c1ccc(CC(=O)N[C@@H](Cc2cccc(C(=O)O)c2O)B(O)O)cc1 [Example 62, (1R)-1-{2-[4-(Carbamimidoyl)-phenyl]-acetylamino}-1-[(3-carboxy-2-hydroxy)benzyl]-methylboronic acid formate salt]
SHV-5 β-lactamase
  IC50: 2 nM
p99 AmpC β-lactamase
  IC50: 3 nM
[1]
  MIC of example compound, E. coli SHV-5: 0.125 µg/mL
KPC-2 β-lactamase
  IC50: 9 nM
[2]
  MIC of example compound, K. pneumoniae KPC-2: 0.125 µg/mL
[3]
  MIC of example compound, E. cloacae P99+: 0.125 µg/mL
[4]
  MIC of example compound, K. pneumoniae CTX-M-15: >128 µg/mL
